According to US12097174B2, “Methods and agents that enhance myogenic progenitor cell engraftment” (President and Fellows of Harvard College, priority 2018, dated 2024):
“Also recorded” adds a separate entry of the source.

Key:
ZeMPCs [1] = assay: Calcium imaging in Fura-2, AM treated ZeMPCs (single-cell imaging); format: cell-based, zebrafish; details: 10 μM NFA, 5 μM LPA, 10 μM ionomycin; 10-20 seconds after loading
Experimental: Fura-2, AM treated ZeMPCs were exposed to 10 μM NFA, 5 μM LPA, 10 μM lonomycin (as a positive control) and DMSO (as vehicle control) to visualize their effect on intracellular calcium ion concentration using single-cell imaging. […] Scale bar 50 μm.
(§1) The ZeMPCs and C2C12 cells were incubated with Fura-2, AM (Thermo Fisher Sci F1225), a cell permeant fluorescent calcium ion indicator, for 45 minutes at 28.5° C. and 37° C., respectively, followed by imaging with Celldiscoverer7 Microscope (Zeiss). 20 seconds after imaging initiation the treatment was added to the cells and continued for a total of 2-3 minutes.

C2C12 cells = assay: Calcium imaging in Fura-2, AM treated C2C12 cells (single-cell imaging); format: cell-based, mouse; details: 10 μM NFA, 5 μM LPA; 10-20 seconds after loading
Experimental: Fura-2, AM treated C2C12 cells were exposed to 10 μM NFA, 5 μM LPA or DMSO as vehicle control to visualize the effect on intracellular calcium ion concentration using single-cell imaging. […] Scale bar 50 μm.
as §1

[2] = test system: sapje-like (sap^c/100) fish; assay: Swimming performance of sapje-like fish before and after transplantation of treated ZeMPCs; format: in vivo, zebrafish; details: cells treated before transplant; tested 7 days after transplant, flow about 5.5 L/min
Experimental: Finally, to assess the functionality of myogenic precursors exposed to NFA and/or LPA prior to muscle engraftment, the swimming performance of sapje-like fish was evaluated before and after transplantation. […] Recipient sapje-like fish were irradiated and injected with healthy ZeMPCs, exposed prior to transplant to NFA, LPA or vehicle alone, on both flanks at 3 dorsal points on each side-in the tail, beneath the dorsal fin, and in the trunk-with 25 cells per injection. Immediately prior to transplant, and again 7 days after transplant, muscle function was tested in a modified Blazka-type swim chamber, in which a flow rate of approximately 5.5 L/min was introduced to test swimming performance (FIG. 16A). […] Because only the treated cells were transplanted, after removal of the compounds, it was concluded from these studies that the swimming performance of these transplanted sapje-like fish was improved as a result of better engraftment by NFA-treated or LPA-treated ZeMPCs. Juvenile zebrafish from a sapje-like transgenic line were fin-clipped and genotyped to identify heterozygotes. A flow-through modified Blazka-type swim chamber was creating using a horizontal acrylic tank with dimensions of 350 mm 1×47 mm w×90 mm d. […] The raw digital file was then analyzed for movement within the swim area. The distance from the flow source was quantified using MATLAB (MathWorks).

ZeMPCs [3] = assay: ZeMPC competitive transplantation assay; format: in vivo; details: co-injected into prkdc-mutant zebrafish, imaged at 7 dpt
Source text: FIGS. 20A-20B show ZeMPC competitive transplantation assays results. (FIG. 20A) Experimental design of ZeMPC competitive transplantation assays using different combinations of chemical-treated or DMSO-treated ZeMPCs marked by mCherry or GFP. ZeMPCs were co-injected from mylz2-GFP and mylz2-mCherry donors into 4- to 8-months-old prkdc-mutant recipient zebrafish and imaged at 7 dpt to assess the engraftment of mylz2-mCherry (pre-transplantation treatment with DMSO) and mylz2-GFP (pre-transplantation treatment with DMSO, LPA or NFA) cells. (FIG. 20B) Engraftment efficiency of equal numbers of DMSO-treated mCherry cells vs. DMSO-treated GFP cells (left), DMSO-treated mCherry cells vs. LPA-treated GFP cells (middle) and DMSO-treated mCherry cells vs. NFA-treated GFP cells (right).
Lipids are frequently found to enhance cell migration and homeostasis in blood and muscle tissue (Cencetti et al., 2014; Lahvic et al., 2018; Li et al., 2015; Oh et al., 2016), and so it was elected to screen mainly bioactive lipids in efforts to identify compounds that enhance ZeMPCs engraftment efficiency in vivo. Myogenic progenitor cells were treated for 4 hours with one of the 188 unique lipid compounds contained in the ICCB Known Bioactives Library. […] Engraftment efficiency was measured by imaging casper recipients at 7 dpt (FIG. 18A). […]

mouse satellite cells = assay: RNA sequencing of treated mouse satellite cells; format: cell-based
Source text: To gain insight into the mechanisms through which LPA and NFA treatment might enhance donor cell engraftment in vertebrate muscle, RNA sequencing analysis were next performed in treated ZeMPCs and in mouse satellite cells. Comparison of differential gene expression in NFA-treated or LPA-treated cells to vehicle-treated cells indicated upregulation of calcium-dependent genes in response to these compounds in both ZeMPCs (FIG. 21) and mouse satellite cells (FIGS. 15A and 15B).
Isolated mouse muscle satellite cells and ZeMPCs were used to prepare RNA after in vitro chemical treatment. Total RNA was isolated by the micro RNeasy kit (QIAGEN). cDNA was prepared using SMART Seq v4 Ultra Low RNA-Seq kit for 48 reactions (Takara) and a Nextera kit was used for library construction. Sequencing data FASTQ files for samples were processed in tophat-cufflinks workflow in a Linux server operating system to output gene-level abundance estimates and statistical inference as gene-level raw counts. Those raw counts for samples were input into the cuffdiff for differential gene expression analysis. The assigned GEO accession number for the RNA sequencing data is GSE143801.

What does the source list for `O=C(O)c1cccnc1Nc1cccc(C(F)(F)F)c1` [NFA, niflumic acid]?
intracellular calcium ion concentration (ZeMPCs [1]): increase; intracellular calcium ion concentration (C2C12 cells): increase; swimming performance vs fish engrafted with vehicle-treated cells [2]: better swimming performance; also recorded: performed significantly better; advantage compared to DMSO-treated control cells in competitive transplantation (ZeMPCs [3]): ~2 fold; expression of calcium-dependent genes vs vehicle-treated cells (mouse satellite cells): upregulation

What does the source list for lysophosphatidic acid [LPA]?
intracellular calcium ion concentration (ZeMPCs [1]): increase; intracellular calcium ion concentration (C2C12 cells): increase; swimming performance vs fish engrafted with vehicle-treated cells [2]: better swimming performance; also recorded: performed significantly better; advantage compared to DMSO-treated control cells in competitive transplantation (ZeMPCs [3]): ~2 fold; expression of calcium-dependent genes vs vehicle-treated cells (mouse satellite cells): upregulation; expression of myoblast fusion related genes, including myomaker (Tmem8c) and Ccl8 (mouse satellite cells): upregulated
